Marks after values point to notes of the source that are not given here.
Columns and labels:
[1] = system: primary dissociated chick dorsal root ganglia (DRG) cultures; assay: Neurite length in primary dissociated chick dorsal root ganglia cultures; assay type: cell-based; conditions: 100 μM, treated at 2-3 DIV, 24 h
Protocol: FIG. 5. LK-5-ethyl ester (LKE) promotes neurite extension in primary, dissociated chick dorsal root ganglia cell cultures. Neurons were treated with LKE or saline vehicle for 24 h from DIV2-3 and quantitatively assessed for neurite morphometry as described in the text.
Cell culture studies were performed to assess LKE effects on neuritigenesis in primary dissociated chick dorsal root ganglia (DRG) cultures prepared essentially as described by Margiotta and Howard. Cultures were treated with LKE at 2-3 days in vitro (DIV), and neuron morphometry was quantified from bright field micrographs by a blinded observer using Metamorph® software (Molecular Devices, Sunnyvale Calif. USA).

SOD1G93A mice = assay: Rotarod motor function in SOD1G93A mice; assay type: in vivo, mouse
Protocol: FIG. 8. […] Mice were treated with daily intraperitoneal injections of gLan, at the indicated dose, 5 days/week beginning at 90 d, and motor performance was evaluated by rotarod task as described in the examples.
(§1) Additional studies to explore effects of LKE in vivo, as a pharmacological candidate were conducted in a murine model for the motoneuron disease amyotrophic lateral sclerosis (ALS). In a first effort to assess LKE effects against a model of spontaneous neurodegeneration, SOD1G93A mutant mice modeling familial ALS [27-28] were treated with intraperitoneal (i.p.) injections of 100 mg/kg/d LKE in saline vehicle, from 90d throughout the remaining mouse lifespan. LKE is relevant to test in this mouse because the SOD1G93A mouse experiences robust neuroinflammation concomitant with TNFα-driven microglial activation, oxidative stress, and significant progressive distal axonopathy, all of which might be expected to be mitigated by LKE based on the ester's observed effects in cell culture. Mouse motor function was assessed as previously described using a standard rotarod test, at sequential 10d intervals (FIG. 6). Specific groups of mice were treated with LKE in saline or saline vehicle only.
(§2) Mice were injected with synthetic gLan in saline at 50-200 mg/kg/d, five days per week (Monday-Friday) beginning at 90d of age. Mice were assessed at baseline and every 10d for motor functional ability using the rotarod task as described previously.

NSC-34 cells = conditions: cited from earlier work
[2] = system: TNFα or LPS-treated microglia and macrophages; conditions: cited from earlier work
SOD1G93A mutant mice = assay: Onset of paralysis and survival in SOD1G93A mouse model of familial ALS; assay type: in vivo; conditions: for age at death (d) mean / onset of paralysis (d) mean: 5 days/week from 90d
Protocol: as §1, with “only. […] Overall survival was increased by LKE based on logrank analysis (Table I).” for “only.”
as §2
Motor function dropped off rapidly amongst all groups at ages >110 d (FIG. 8). As in the case of LKE treatment, chronic intraperitoneal gLan at 100-200 mg/kg/dose tended to increase the age at which onset-of-paralysis was observed (based on a leg-clinch test) and the mean age of death of the SOD1G93A mice (Table II). When motor performance curves were interpolated to estimate the age at which mice lost an average 50% of baseline motor function, the 100 mg/kg/dose gLan treatment group reached this clinical endpoint approximately 18d later than the vehicle-treated group (FIG. 8).

[3] = system: NSC-34 motor neuron-like cells; conditions: NSC-34 cells; cited from earlier work
HT-4 neurons = conditions: cited from earlier work
syntaptosomal membranes = conditions: cited from earlier work
[4] = 100 mg/kg/d i.p. in saline from 90d, N = 15

What does the source list for CCOC(=O)C1CSCC(C(=O)O)=N1 (centres unmarked) [LKE, LK-5-ethyl ester]?
mean neurite length of dissociated DRG neurons [1]: significantly increased; progression of clinical motoneuron disease (SOD1G93A mice; 100 mg/kg/d i.p. from 90d, rotarod and leg-splay test): significantly slowed; growth factor-stimulated outgrowth of neurites (NSC-34 cells): promoted; nitric oxide synthesis [2]: suppressed; overall survival (SOD1G93A mutant mice; 100 mg/kg/d i.p. from 90d, logrank analysis): increased; maximum age at death (SOD1G93A mutant mice; [4]): 152 days; median age at death (d) (SOD1G93A mutant mice; [4]): 139† d; minimum age at death (SOD1G93A mutant mice; [4]): 124 days; age of frank paralysis (SOD1G93A mutant mice; 100 mg/kg/d i.p. in saline from 90d, mean ± SEM, N = 15): 121.6 ± 2.5 days; protection from toxicity of hydrogen peroxide (H2O2) [3]: protected; protection from toxicity of microglia-conditioned medium [3]: protected; protection against toxicity of high-dose glutamate (HT-4 neurons): protected

Which results are given for O=C(O)C1=NC(C(=O)O)CSC1 (centres unmarked) [LK, 2H-1,4-thiazine-5,6-dihydro-3,5-dicarboxylic acid]?
nitric oxide synthesis [2]: suppressed; Kd (syntaptosomal membranes; saturable, reversible with cold LK, read-out: Kd of [35S]LK binding to synaptosomal membranes): 58 nM; protection against toxicity of high-dose glutamate (HT-4 neurons): protected

With O=C(O)C1CSCC(C(=O)O)N1 (centres unmarked) [reduced LK, thiomorpholine dicarboxylic acid] as the compound, how does the “displacement of [35S]LK” value (syntaptosomal membranes) read?
Its value is “could not displace”.

What does the source list for NC(CSC[C@H](NC(=O)CC[C@H](N)C(=O)O)C(=O)NCC(=O)O)C(=O)O (some centres unmarked) [gLan, γGlu-Cys(S-Ala)-Gly]?
delay versus vehicle of the age at which mice lost an average 50% of baseline motor function (SOD1G93A mice; 100 mg/kg/dose, interpolated from motor performance curves): approximately 18 d; motor function (rotarod) (SOD1G93A mice; 50-200 mg/kg/d, up to 110d or 120d, 100 mg/kg optimum, p<0.01 repeated measures ANOVA): dose-dependently improved; average rotarod performance at 100d and 110d versus 90d baseline (SOD1G93A mice; 100-200 mg/kg/d): improved above the 90d baseline value; motor function relative to saline treated control animals (SOD1G93A mice; 100-200 mg/kg/d, ages <120d): twice; age at death (d) mean (SOD1G93A mutant mice; gLan 50 mg/kg daily i.p.): 126.7 days; onset of paralysis (d) mean (SOD1G93A mutant mice; gLan 50 mg/kg daily i.p.): 111.6 days; age at death (d) mean (SOD1G93A mutant mice; gLan 100 mg/kg daily i.p.): 138.3 days; onset of paralysis (d) mean (SOD1G93A mutant mice; gLan 100 mg/kg daily i.p.): 123.8 days; age at death (d) mean (SOD1G93A mutant mice; gLan 200 mg/kg daily i.p.): 133.1 days; onset of paralysis (d) mean (SOD1G93A mutant mice; gLan 200 mg/kg daily i.p.): 116.7 days

Source: patent publication US20130209366A1, “Glutathione-Lanthionine Compounds and Methods Related Thereto” (OKLAHOMA MEDICAL RESEARCH FOUNDATION, priority 2010, published 2013)
